Data as given in patent US20110178104A1, “Anti-Heparin Compounds” (POLYMEDIX INC., priority 2010, published 2011).
≈ marks a conversion by molar mass, not a printed value. Where two headings read alike, the source gives them in different places.

Columns and labels:
enoxaparin = test: FXa amidolytic assay (Example 10), enoxaparin; details: read-out: Enox FXa EC50; enoxaparin 0.1 ug/ml; human antithrombin, bovine Factor Xa
tinzaparin = test: FXa amidolytic assay (Example 10), tinzaparin; details: read-out: Tinzap FXa EC50; tinzaparin 0.1 ug/ml; human antithrombin, bovine Factor Xa
[1] = Cytotoxicity colorimetric assay, NIH/3T3; type: cell-based, mouse; details: mouse, NIH/3T3 cells, one hour in serum-free media
Protocol: (§1) This assay measures the bioreduction of a novel tetrazolium compound to a soluble formazan product by viable cells. HepG2 cells were seeded in 96 well plates at 3×10^4 cells/well in MEM medium with 10% fetal bovine serum (FBS) 24 hours prior to use. NIH/3T3 cells were seeded in 96 well plates at 2×10^4 cells/well in DMEM medium with 10% bovine calf serum (BCS) 24 hours prior to use. Cell monolayers were rinsed in serum-free media and incubated for one hour with test agent in serum-free media. After incubation, the media was replaced with serum supplemented media and live cells were measured using the Cell Titer 96 Aqueous […] Assay kit (Promega, Madison, Wis.). EC50 values were determined using a four parameter logistic equation: Y=Bottom+(Top-Bottom)/(1+10̂((LogEC50-X)*HillSlope)).

[2] = test system: isolated human erythrocytes; test: cells; type: cell-based; details: Homo sapiens, Erythrocyte, 1 h, read-out: Hemolysis EC50
In short: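 Test agent was serially diluted two-fold over 0.48–1000 µg/ml and incubated for 1 h at 37 °C with shaking, using erythrocytes from pooled human blood diluted in Tris-buffered saline pH 7.4 (0.22% stock). Hemolysis was measured as supernatant absorbance at 405 nm. A four-parameter logistic equation gave EC50, and melittin served as the positive control.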

Unfractionated heparin = test: aPTT clotting assay, UFH 0.4 U/mL in plasma (Example 10); type: biochemical; details: unfractionated heparin 0.4 U/mL in plasma; aPTT clotting
Protocol: aPTT clotting Assay: Unfractionated heparin was mixed with plasma at a final concentration of 0.4 U/mL (or concentration which increases aPTT time to between 120 and 300 seconds). […] The ACL Elite Hemostasis analyzer (Beckman Coulter™) was used to add aPTT reagent (HemosIL SynthASil) to supplemented plasma. Clotting was initiated by addition of CaCl2 and time to clot was recorded.

[3] = Cytotoxicity colorimetric assay, HepG2; type: cell-based, human; details: human, HepG2 cells, one hour in serum-free media
Protocol: as §1

fondaparinux = test: FXa amidolytic assay (Example 10), fondaparinux; details: for EC50: read-out: Fondap FXa EC50, fondaparinux 0.02 μg/mL, human antithrombin, bovine Factor Xa
UFH = test: FXa amidolytic assay (Example 10), UFH; details: read-out: Heparin FXa uM EC50; UFH 0.03 units/mL; human antithrombin, bovine Factor Xa

Row | Structure (SMILES) | EC50 (enoxaparin) [µM] | EC50 (tinzaparin) [µM] | EC50 (Unfractionated heparin) [µM] | EC50 (fondaparinux) [µM] | EC50 (UFH) [µM] | EC50 at 1 h [1] [µg/mL] | EC50 ([2]; human RBC, 1 hour at 37° C.) [µg/mL] | EC50 at 1 h [3] [µg/mL] | Potent LMWH-antagonists with superior anti-fondaparinux activity (summary) (fondaparinux) | EC50 [2] [µg/mL]
1 | COc1cc(OC)c(C(=O)N[C@H]2CC[C@H](NC(=O)c3cncc(C(=O)N[C@H]4CC[C@H](NC(=O)c5cc(C(=O)NCCN)c(OC)cc5OC)CC4)c3)CC2)cc1C(=O)NCCN [Compound 400] | 1.22 | 1.18 | 5.09 | 5.51 | – | > 1000 | > 1000 | 1300 (≈ 1520 µM) | – | –
2 | COc1cc(OC)c(C(=O)N[C@H]2CC[C@H](NC(=O)c3cccc(C(=O)N[C@H]4CC[C@H](NC(=O)c5cc(C(=O)NCCN)c(OC)cc5OC)CC4)n3)CC2)cc1C(=O)NCCN [Compound 397] | 0.985 | 0.955 | 1.15 | 2.63 | – | 408 (≈ 475 µM) | > 1000 | 616 (≈ 717 µM) | – | –
3 | COc1cc(OC)c(C(=O)Nc2ccc(NC(=O)c3ccc(OCCCCCN)cc3OCCCCCN)cc2)cc1C(=O)Nc1ccc(NC(=O)c2ccc(OCCCCCN)cc2OCCCCCN)cc1 [Compound 411] | 0.096 | 0.123 | 1.15 | 0.061 | – | 86 (≈ 84.4 µM) | > 1000 | 590 (≈ 579 µM) | superior anti-fondaparinux activity | –
4 | COc1cc(OC)c(C(=O)Nc2ccc(NC(=O)c3cc(C(=O)NCCN(C)C)c(OCCCCCN)cc3OCCCCCN)cc2)cc1C(=O)Nc1ccc(NC(=O)c2cc(C(=O)NCCN(C)C)c(OCCCCCN)cc2OCCCCCN)cc1 [Compound 410] | 0.056 | 0.068 | 0.64 | 0.041 | – | 97.5 (≈ 78.1 µM) | – | 250 (≈ 200 µM) | – | > 1000
5 | COc1cc(OC)c(C(=O)NC2CCC(NC(=O)c3cc(C(=O)NCCN)c(OC)cc3OC)CC2)cc1C(=O)O (stereo not shown) [Compound 347] | > 5 | > 5 | > 10 | > 10 | > 20 | > 1000 | – | > 1000 | – | –

The next lines start with results.

Row | EC50 (enoxaparin) [µM] | EC50 (tinzaparin) [µM] | EC50 (Unfractionated heparin) [µM] | EC50 (fondaparinux) [µM] | EC50 (UFH) [µM] | Structure (SMILES) | EC50 at 1 h [1] [µg/mL] | EC50 ([2]; human RBC, 1 hour at 37° C.) [µg/mL] | EC50 at 1 h [3] [µg/mL] | Potent LMWH-antagonists with superior anti-fondaparinux activity (summary) (fondaparinux) | EC50 [2] [µg/mL]
6 | 0.299 | 0.436 | 2.46 | 0.113 | – | COc1cc(OC)c(C(=O)N[C@H]2CC[C@H](NC(=O)c3cc(C(=O)N[C@H]4CC[C@H](NC(=O)c5cc(C(=O)NCCCN)c(OC)cc5OC)CC4)c(OC)cc3OC)CC2)cc1C(=O)NCCCN [Compound 406] | 215 (≈ 227 µM) | 12.1 (≈ 12.8 µM) | 209 (≈ 220 µM) | – | –
7 | 2.53 | 2.04 | 4.77 | 13.9 | – | COc1cc(OC)c(C(=O)N[C@H]2CC[C@H](NC(=O)c3cccc(C(=O)N[C@H]4CC[C@H](NC(=O)c5cc(C(=O)NCCN)c(OC)cc5OC)CC4)c3)CC2)cc1C(=O)NCCN [Compound 398] | > 1000 | > 1000 | 1090 (≈ 1270 µM) | – | –
8 | 0.35 | 0.445 | 2.57 | 0.325 | – | COc1cc(OC)c(C(=O)N[C@H]2CC[C@@H](NC(=O)c3cc(C(=O)N[C@H]4CC[C@@H](NC(=O)c5cc(C(=O)NCCCN)c(OC)cc5OC)CC4)c(OC)cc3OC)CC2)cc1C(=O)NCCCN [Compound 404] | 1100 (≈ 1160 µM) | – | > 1000 | – | –
9 | 5.81 | 3.18 | 5.52 | 5.86 | – | COc1cc(OC)c(C(=O)N[C@H]2CC[C@H](NC(=O)c3cc(C(=O)N[C@H]4CC[C@H](NC(=O)c5cc(C(=O)NCCN)c(OC)cc5OC)CC4)ncn3)CC2)cc1C(=O)NCCN [Compound 402] | 753 (≈ 875 µM) | > 1000 | 864 (≈ 1000 µM) | – | –
10 | 0.707 | 0.708 | 2.08 | 1.28 | – | COc1cc(OC)c(C(=O)N[C@H]2CC[C@H](NC(=O)c3cc(C(=O)N[C@H]4CC[C@H](NC(=O)c5cc(C(=O)NCCN)c(OC)cc5OC)CC4)c(OCC(N)=O)cc3OC)CC2)cc1C(=O)NCCN [Compound 390] | 986 (≈ 1020 µM) | > 1000 | 892 (≈ 927 µM) | – | –
